The results in this text go back to patent publication EP4653006A1, “NOVEL MIXTURE OF ACTIVE INGREDIENTS, COMPOSITIONS CONTAINING THEM, AND THEIR USE AGAINST ALLERGY AND/OR INFLAMMATION” (Global Pharmacies Partner S.R.L. in Forma Abbreviata G.P.P. …, priority 2024, dated 2025).

The subject of one test is TNFα. Nature of the test: TNFα release by ELISA in sensitized/stimulated RBL-2H3 cells. It is filed as cell-based, rat. To be noted: positive control 20 µM. The method, then: The anti-inflammatory action was instead evaluated, always in the same cell line, by measuring the ability of the sample to inhibit the release of tumor necrosis factor alpha (TNFα).
(§1) The RBL-2H3 cells were first sensitized and then stimulated to induce degranulation.
The test was conducted on RBL-2H3 cells grown in DMEM (Dulbecco's modified Eagle medium) containing 10% fetal bovine serum (FBS) and 1% antibiotics (penicillin and streptomycin) and incubated in standard culture conditions (37°C, 5% CO2). RBL-2H3 cells are widely used in allergy and immunology research, as, like mast cells, they express FCεRI and, following cross-linking between IgE bound to FCεRI and allergens, they undergo degranulation. In this way, therefore, they simulate the behavior of mast cells and basophils in their response to an immunological stimulus.
The supernatant recovered from the cells was also used for the dosage of TNFα performed by ELISA (Enzyme-Linked Immunosorbent Assay), a very widespread biochemical technique used for the quantification of proteins and peptides. In an ELISA assay, a specific […] for TNFα is immobilized on a solid surface (the bottom of a well) to which the assay medium is added. Detection is done by means of a biotinylated secondary antibody and then reacted with streptavidin-HRP. The colorimetric reaction is proportional to the amount of TNFα present. The results are read by spectrophotometer at 450 nm. The values obtained were then interpolated into a standard curve of TNFα.
The absorbance (optical density, OD) measured at 450 nm is directly proportional to the amount of TNFα produced by the tissues. To calculate the concentrations of TNFα, the OD values obtained were interpolated into a standard curve of TNFα. The percentages were calculated with respect to the non-sensitized and non-stimulated cells (NS). The values are expressed as means ± standard deviation. Statistical processing of the data was performed by Student's t-test. Values of p<0.05 are considered significant. […]
Background: ELISA stands for enzyme-linked immunosorbent assay.

The test system of another test is RBL-2H3 cells. Kind of test: degranulation (β-hexosaminidase release) in sensitized/stimulated RBL-2H3 cells. To be noted: positive control 20 µM. It is filed as cell-based, rat. As to the method: The antiallergic activity of the tested sample of mixture M was evaluated by measuring its ability to prevent degranulation processes in a rat leukemia cell line (RBL-2H3), widely used as a model simulating mast cells in immunological and allergological studies.
as §1
The test was conducted on RBL-2H3 cells grown in DMEM (Dulbecco's modified Eagle medium) containing 10% fetal bovine serum (FBS) and 1% antibiotics (penicillin and streptomycin) and incubated in standard culture conditions (37°C, 5% CO2). […]
The medium was then recovered and separated from the cells and incubated with 4-nitrophenyl-N-acetyl-β-D-glucosamide. The reaction was stopped with carbonate buffer and the absorbance was measured by spectrophotometric reading at 405 nm. Degranulation was calculated as the percentage of β-hexosaminidase relative to non-sensitized (NS) cells as follows: Degranulation (%) = (ODX)/(ODNS)⋅100 [formula]
The measured absorbance (optical density, OD) is directly proportional to the amount of β-hexosaminidase present in the analyzed fluids, which in turn correlates positively with the levels of histamine released during the degranulation phase and is therefore an indicative marker of the degranulation process. […] The values are expressed as means ± standard deviation. […]

On to `C=C1CC[C@H]2C(=C)CC[C@H]3C(=C)C(=O)O[C@@H]3[C@@H]12` [PC, Dehydrocostolactone], for which the “protection (% vs NC), reduction in TNFα release” value in the test on TNFα is on record as 19.5%. In addition, the “TNFα (% vs NS)” value in the test with TNFα (NC = 227.8) turned out to be 183.4%. Further, the “TNFα” value with TNFα (NC = 248.8) is 200.3 pg/mL. In the test on RBL-2H3 cells, the “protection (% vs NC), reduction in degranulation” value was 80.8%. The “β-hexosaminidase (% vs NS)” value with RBL-2H3 cells (anti-DNP IgE / DNP-HSA, NC = 1,274.6) is given as 244.8%.
